One data set relates to PC12 cells. Briefly: PC12 cell differentiation (neurite outgrowth). It is filed as cell-based, rat. The note with it: 3 days, peptoids 2 ng/ml to 50 μg/ml, reduced serum (0.5% FBS and 1% HS); compared with NGF 100 ng/ml. The method, then: PC 12 cell differentiation was measured by plating cells onto collagen-coated 24-wells plates. NGF (100 ng/ml) or the small chemicals at different concentrations were added and the percentage of cells with neurite processes greater than two cell bodies in length were counted after relevant treatment. For each experiment at least 300 cells were randomly measured (Burstein and Greene, 1978).
PC12 cells were maintained at 37° C. in DMEM supplemented with 2.5% FBS, 15% of Horse serum (HS) and penicillin/streptomycin in a humidified 5% CO2 incubator. The cells were grown on 60- and 100-mm tissue culture dishes (Becton Dickinson).
PC 12 cells were cultured for 3 days in the presence of the peptoids (from 2 ng/ml to 50 μg/ml) under reduced serum conditions (0.5% FBS and 1% HS).

Another data set relates to RN22 cells. Briefly: RN22 cell survival under CuSO4 stress (MTT). It is filed as cell-based, rat. The note with it: CuSO4 150 μM, 24 h, peptoids 1 ng/ml-10 μg/ml; compared with NGF 100 ng/ml. The method, then: The library was also tested to assess their capacity to promote cell survival of myelin producing cells. To delineate p75 signalling independent of TrkA, we used a rat schwannoma cell line (RN22) expressing p75, but not TrkA, (Gentry et al., 2000).
The rat schawnnoma cell line RN22 was cultured in 5% CO2 at 37° C. in Dulbecco's modified Eagle's medium (DMEM) with 10% fetal bovine serum (FBS) and penicillin/streptomycin.
RN22 cells were plated at 20,000 cells/well on a 24-well plate in DMEM alone and after allowing the cells to adhere for 3 days, cupper sulphate (CuSO4) (150 μM) was added with or without NGF (100 ng/ml) or the peptoids N35-4-8C, N6-4-17C and N35-4-17C at different concentrations (1 ng/ml-10 μg/ml) to generate stress and cell death. After 24 h cell viability was studied by determining the amount of yellow MTT (Sigma) that was reduced to insoluble purple formazan. After removing the medium, the water-insoluble formazan was solubilised with DMSO (Sigma), and the dissolved material was measured spectrophotometrically at a wavelength of 570 nm, subtracting the background at 650 nm (Frade, 2005).

Another data set deals with C57BL/6 EAE mice. Briefly: Experimental autoimmune encephalomyelitis (EAE) clinical score. It is filed as in vivo. The following applies: daily intraperitoneal. The method, then:
Trials were approved by the Parc Cientific de Barcelona Committee on Animal Care. Female C57BL/6 mice from Harlan (8-12 weeks old) were immunized subcutaneously in both hind pads with 300 μg of myelin oligodendrocyte glycoprotein (MOG) peptide 35-55 (Spikem, Firenze) emulsified with 50 μg of Mycobacterium tuberculosis (H37Ra strain; Difco, Detroit, Mich.) in incomplete Freund's adjuvant (IFA) as previously described (Adams et al. 2007). Mice were intraperitoneally injected with Pertussis toxin (Sigma)(500 ng) at the time of immunization and 2 days later. Animals were weighted and inspected for clinical signs of disease on a daily basis by a blinded observer. Disease severity of EAE was assessed according to the following scale: 0=normal; 0.5=mild limp tail; 1=limp tail; 2=mild parapesis of the hind limbs, unsteady gait; 3=moderate parapesis, voluntary movements still possible; 4=paraplegia or tetraparesis; 5=moribund state. Data shown for the clinical studies are representative of two independent experiments performed with the indicated number of animals (Moreno et al., 2006).
(§1) The agonist molecules selected for the animal studies, N35-4-8C, N6-4-17C and N35-4-17C, were prepared in water with 5% DMSO. Animals were treated with the agonist molecule (25, 50 and 100 mg/kg) or placebo (water+5% DMSO) through daily intraperitoneal injection starting after immunization. At the end of the study, mice were anesthetized and perfused intracardially with 4% of paraformaldehyde in 0.1M phosphate buffer (pH 7.6). Brains, spinal cords and spleens were dissected and either fixed or frozen until use. Serum was obtained from all animals included in the study, and transaminases levels were measured.
In order to evaluate the effects of the NGF-like peptoids “in vivo”, we studied the effect of the NGF-mimetic peptoids in the animal model of MS. C57BL/6 mice immunized with MOG35-55 peptide were treated daily with N35-4-8C, N6-4-17C and N35-4-17C intraperitoneally from day 0 to day 25 at a different concentrations of the compound. N35-4-8C was tested at 3 different concentrations selected in base to previous experiments using agonist molecules in animal models: 25 mg/kg, 50 mg/kg and 100 mg/kg. […] N35-4-17C was also tested at the same concentrations. […] Moreover, the treatment had higher clinical scores with a clear worsening in the progression of the disease (FIG. 4C).

The nature of data set [1]: Serum transaminases levels in treated EAE mice. It is filed as in vivo. The following applies: daily intraperitoneal treatment, N35-4-17C at the higher concentrations. The method, then: as §1
A further data set deals with T1, TrkA (Rattus norvegicus, UniProt P35739).
T1 construct: we analyzed their capacity to induce TrkA phosphorylation in PC12 cells; endogenous in cells; host or cells: PC12 cells
Briefly: TrkA phosphorylation in PC12 cells (western blot). It is filed as cell-based. The note with it: 100 ng/ml, time course. How it is done: Activation of TrkA is the first event in the signalling cascade leading to differentiation and survival of NGF responsive neurons and PC12 cells (Greene and Tischler, 1976; Chao, 2003; Huang and Reichardt, 2003). To evaluate whether the neurotrophic activity of NGF-like peptoids was mediated by the interaction with TrkA receptor, we analyzed their capacity to induce TrkA phosphorylation in PC12 cells. The activity of peptoids was tested in the range of concentrations that were effective on PC12 cells differentiation.
Western Blot Analysis. Subconfluent cells were grown overnight in medium containing 2% FBS and 1% HS and stimulated with 100 ng/ml NGF or the NGF-like small chemicals for the indicated time points. Cells were then washed with cold phosphate-buffered saline (PBS) and briefly sonicated in SDS sample buffer (containing β-mercaptoethanol and 2 mM PMSF). Lysates (200 μg of total proteins) were separated on SDS-PAGE, and transferred to nitrocellulose (Whatman, Dassel, Germany). […]
(In general: In western blotting, separated proteins are transferred to a membrane and probed.)

Another data set concerns IκBα. The experiment in a line: IκBα phosphorylation / NF-κB pathway activation in PC12 and RN22 cells (western blot). It is filed as cell-based, rat. The note with it: 100 ng/ml. How it is done:
(§2) Western Blot Analysis. Subconfluent cells were grown overnight in medium containing 2% FBS and 1% HS and stimulated with 100 ng/ml NGF or the NGF-like small chemicals for the indicated time points. Cells were then washed with cold phosphate-buffered saline (PBS) and briefly sonicated in SDS sample buffer (containing β-mercaptoethanol and 2 mM PMSF). Lysates (200 μg of total proteins) were separated on SDS-PAGE, and transferred to nitrocellulose (Whatman, Dassel, Germany). After blocking with 5% nonfat milk in TBST buffer (10 mM Tris pH 7.5; 150 mM NaCl/0.2% Tween 20), blots were probed overnight at 4° C. with anti-p-TrkA (Tyr 490) antibody (1:1000), anti TrkA antibody (1:1000), anti-p-IκBα (Ser 32/36)(5A5) mouse antibody (1/1000), anti IκBα (L35A5) mouse antibody (1:1000), anti-p-SAPK/JNK (Thr183/Tyr185) antibody (1:1000) or anti-SAPK/JNK antibody (1/1000)(all of them from Cell Signaling), followed by incubation with HRP-conjugated IgG (Jackson ImmunoResearch) for 1 h at room temperature (RT). Detection of phosphorylated species was performed by using the enhanced chemiluminescence (ECL) system (GE Healthcare Bio-Sciences, Piscataway, N.J.).
To investigate whether our NGF-like small chemicals activate p75 we analyzed the activation of the NF-κB pathway (Bonizzi G, Karin M. 2004) and the SAPK/JNK pathway (cell death) in PC12 and RN22 cell lines. […]

The test system of a further data set is SAPK/JNK. The experiment in a line: SAPK/JNK phosphorylation in RN22 cells (western blot). It is filed as cell-based, rat. The following applies: 100 ng/ml. How it is done: as §2
In several neuronal systems, JNK activation has been causally linked with the induction of programmed cell death (Bhakar et al., 2003). […]

Entries after “also recorded” stand apart in the source; their conditions may differ. Where only a bound is given, the exact number is not on record here.

T1 sequence (P35739 33-799): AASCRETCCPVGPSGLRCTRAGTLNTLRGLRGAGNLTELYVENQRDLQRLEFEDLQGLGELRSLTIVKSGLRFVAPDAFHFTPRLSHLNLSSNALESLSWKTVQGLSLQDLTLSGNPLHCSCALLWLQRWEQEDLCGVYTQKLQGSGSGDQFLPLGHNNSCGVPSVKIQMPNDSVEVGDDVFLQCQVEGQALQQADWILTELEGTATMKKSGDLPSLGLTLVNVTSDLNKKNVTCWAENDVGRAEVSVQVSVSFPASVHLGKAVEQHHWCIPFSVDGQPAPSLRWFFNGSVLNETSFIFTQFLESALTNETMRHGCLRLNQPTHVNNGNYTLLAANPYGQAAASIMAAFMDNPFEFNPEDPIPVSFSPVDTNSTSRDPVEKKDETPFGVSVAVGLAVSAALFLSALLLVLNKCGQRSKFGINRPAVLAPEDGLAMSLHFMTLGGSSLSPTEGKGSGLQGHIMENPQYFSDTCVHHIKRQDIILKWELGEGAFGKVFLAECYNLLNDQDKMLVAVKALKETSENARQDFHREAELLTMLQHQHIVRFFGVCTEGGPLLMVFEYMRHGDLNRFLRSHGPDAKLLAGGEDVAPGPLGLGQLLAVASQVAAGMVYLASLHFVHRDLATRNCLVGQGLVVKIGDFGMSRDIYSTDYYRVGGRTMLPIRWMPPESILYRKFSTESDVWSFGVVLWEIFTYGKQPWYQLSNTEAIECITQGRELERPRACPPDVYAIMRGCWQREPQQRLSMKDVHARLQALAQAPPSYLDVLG

Take `CC(C)CCN(CC(=O)N(CCc1ccc(S(N)(=O)=O)cc1)CC(N)=O)C(=O)CNCCN1CCCC1` [N6-4-17C, [N-(2-(1-Pyrrolidinyl)ethyl)glycyl]-[N-(3-methylbutyl)glycyl]-N-[2-(4′-sulfamoylphenyl)ethyl]glycinamide]: the “differentiation of PC12 cells” value with PC12 cells is reported as “induce the differentiation of PC12 cells at different concentrations to an extent substantially comparable with that induce by NGF”. Further, in the data set on RN22 cells, the “survival of RN22 cells (cell viability, MTT)” value is “promote survival of RN22 cells”. Besides, in the data set with C57BL/6 EAE mice (any of the concentrations tested (25, 50, 100 mg/kg), 26 days observation), the EAE clinical severity result is “not effective in reducing the clinical severity of EAE; also recorded: no effects in EAE”. For the same compound, the “transaminases levels in serum” value in data set [1] is given as “elevated transaminases levels”.
Turning to “NGF: homodimeric protein from the neurotrophin family; used as positive control at 100 ng/ml”, the “time of maximal TrkA phosphorylation” value with TrkA worked out at 30 min. Further, the “time after addition at which p-IκBα levels were increased” value in the data set on IκBα was no more than 5 min. For the same compound, the “activation of the JNK pathway (phosphorylation of SAPK/JNK)” value in the data set on SAPK/JNK is listed as “obvious”.
Take `CC(C)CCN(CC(=O)N(CCc1ccc(S(N)(=O)=O)cc1)CC(N)=O)C(=O)CNCCc1ccccc1F` [N35-4-17C, [N-(2-(2′-Fluorophenyl)ethyl)glycyl]-[N-(3-methylbutyl)glycyl]-N-[2-(4′-sulfamoylphenyl)ethyl]glycinamide]: the “differentiation of PC12 cells” value with PC12 cells is recorded as “induce the differentiation of PC12 cells at different concentrations to an extent substantially comparable with that induce by NGF”. In addition, the “survival of RN22 cells (cell viability, MTT)” value with RN22 cells is “promote survival of RN22 cells”. Also, the EAE clinical severity entry in the data set on C57BL/6 EAE mice (25 mg/kg, day 0 to day 25) was “prevents significantly the development of clinical symptoms in EAE”. Further, the EAE clinical symptoms result in the data set on C57BL/6 EAE mice (higher concentrations (50 and 100 mg/kg)) was “toxic effect worsening the development of the clinical symptoms”. Further, the “transaminases levels in serum” value in data set [1] was “elevated transaminase levels”.

Source of the values: patent publication US20120237552A1, “Peptoid Agonists of Nerve Growth Factor and Their Use as Medicaments” (priority 2009, published 2012).
